Measurements: patent US12612407B2, “Imidazo[2,1-f][1,2,4]triazin-4-amine derivatives as TLR7 agonist” (BEIGENE, LTD., priority 2020, dated 2026)

Target: T1, human TLR7 (Homo sapiens, UniProt Q9NYK1)
T1 construct: host or cells: HEK293 (HEK-Blue hTLR7)
T1 sequence (Q9NYK1 27-1049): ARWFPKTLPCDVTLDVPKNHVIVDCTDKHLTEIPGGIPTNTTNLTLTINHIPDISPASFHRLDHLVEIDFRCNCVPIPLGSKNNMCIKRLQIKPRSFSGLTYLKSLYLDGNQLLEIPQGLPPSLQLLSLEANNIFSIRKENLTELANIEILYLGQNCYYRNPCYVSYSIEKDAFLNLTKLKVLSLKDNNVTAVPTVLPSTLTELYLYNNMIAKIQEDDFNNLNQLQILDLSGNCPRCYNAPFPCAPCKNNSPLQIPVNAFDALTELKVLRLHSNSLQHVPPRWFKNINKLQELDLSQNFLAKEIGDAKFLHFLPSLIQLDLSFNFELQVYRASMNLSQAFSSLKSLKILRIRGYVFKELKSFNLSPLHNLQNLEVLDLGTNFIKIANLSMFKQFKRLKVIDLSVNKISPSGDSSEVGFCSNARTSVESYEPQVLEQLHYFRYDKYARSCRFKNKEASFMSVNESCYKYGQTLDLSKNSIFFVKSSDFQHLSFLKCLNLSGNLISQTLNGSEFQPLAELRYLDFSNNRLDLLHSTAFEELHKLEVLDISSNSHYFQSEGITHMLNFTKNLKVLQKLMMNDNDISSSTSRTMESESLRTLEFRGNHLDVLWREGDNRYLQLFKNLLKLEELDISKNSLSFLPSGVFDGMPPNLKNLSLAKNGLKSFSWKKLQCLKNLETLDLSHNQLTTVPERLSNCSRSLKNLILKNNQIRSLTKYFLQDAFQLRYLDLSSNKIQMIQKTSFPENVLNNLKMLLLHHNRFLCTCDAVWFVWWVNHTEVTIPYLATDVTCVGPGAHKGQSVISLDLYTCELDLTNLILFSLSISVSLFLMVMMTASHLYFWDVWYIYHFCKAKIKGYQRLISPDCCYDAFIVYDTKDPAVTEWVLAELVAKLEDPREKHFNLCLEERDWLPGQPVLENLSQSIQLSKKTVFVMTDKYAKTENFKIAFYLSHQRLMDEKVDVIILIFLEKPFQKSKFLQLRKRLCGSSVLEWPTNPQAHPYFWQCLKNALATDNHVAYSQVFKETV
Assay: HEK293-Blue hTLR7 Reporter Assay (QUANTI-BLUE, SEAP readout)
Type: cell-based
Conditions: HEK-Blue-hTLR7 cells, 24 hrs treatment, Table 1, B1-B232
Description: HEK293-Blue hTLR7 Reporter Assay: HEK-Blue-hTLR7 cell line (Invivogen, Cat. No. hkb-htlr7) was designed so that the expression of the secreted embryonic alkaline phosphatase (SEAP) was induced by activating NF-κ and AP-1 via stimulating human TLR7 with TLR7 agonists. HEK-Blue-hTLR7 cells were seeded at a density of 4×10^4 cells/well in a volume of 180 μL in a 96-well plate in DMEM (Cat. No. 11965-092) supplemented with 10% (v/v) heat-inactivated fetal bovine serum (FBS) (Gibco, 10099-1441), 100 U/ml penicillin and 100 μg/ml streptomycin (Gibco, 15140122) containing 50 U/mL penicillin, […] and 10% (v/v) heat-inactivated fetal bovine serum. The cells were settled for 5 hrs, then treated with increasing amounts of tested compounds at 37° C. for 24 hrs. Then 20 μL of the supernatant from each well was incubated with 180 μL Quanti-blue substrate solution at 37° C. for 10-30 mins before the activity of the SEAP was determined at 620-655 nm using a spectrophotometer. The EC50 value for each compound was calculated with GraphPad Prism software using the sigmoidal dose-response function.

| Compound | EC50 [nM] |
| --- | --- |
| CCCCOc1nc(N)c2ncc(Cc3cnc(N4CC(N)C4)c(C)c3)n2n1 [Compound B136, 7-((6-(3-aminoazetidin-1-yl)-5-methylpyridin-3-yl)methyl)-2-butoxyimidazo[2,1-f][1,2,4]triazin-4-amine] | 4980 |
| CCCCOc1nc(N)c2ncc(Cc3ccc(N4CC(C)NC(C)C4)c(C)c3)n2n1 (centres unmarked) [Compound B61, 2-butoxy-7-(4-(3,5-dimethylpiperazin-1-yl)-3-methylbenzyl)imidazo[2,1-f][1,2,4]triazin-4-amine] | 660 |
| CCCCOc1nc(N)c2ncc(Cc3cnc(N4CCC5(CCNCC5)CC4)c(C)c3)n2n1 [Compound B131, 2-butoxy-7-((5-methyl-6-(3,9-diazaspiro[5.5]undecan-3-yl)pyridin-3-yl)methyl)imidazo[2,1-f][1,2,4]triazin-4-amine] | 98 |
| CCCC(CCC)Nc1nc(N)c2ncc(Cc3cnc(N4CCC(CNC)CC4)c(C)c3)n2n1 [Compound B220, N2-(heptan-4-yl)-7-((5-methyl-6-(4-((methylamino)methyl)piperidin-1-yl)pyridin-3-yl)methyl)imidazo[2,1-f][1,2,4]triazine-2,4-diamine] | 3.6 |
| CCCCOc1nc(N)c2ncc(Cc3cnc(N4CCNCC4)c(F)c3)n2n1 [Compound B9, 2-butoxy-7-((5-fluoro-6-(piperazin-1-yl)pyridin-3-yl)methyl)imidazo[2,1-f][1,2,4]triazin-4-amine] | 345 |
| CCCCOc1nc(N)c2ncc(Cc3cnc(N4CCN(C(=O)[C@@H](N)Cc5ccccc5)CC4)c(C)c3)n2n1 [Compound B81, (S)-2-amino-1-(4-(5-((4-amino-2-butoxyimidazo[2,1-f][1,2,4]triazin-7-yl)methyl)-3-methylpyridin-2-yl)piperazin-1-yl)-3-phenylpropan-1-one] | 4440 |
| CCCCOc1nc(N)c2ncc(Cc3cnc(N4CCC(NC(=O)CN(C)C)CC4)c(C)c3)n2n1 [Compound B142, N-(1-(5-((4-amino-2-butoxyimidazo[2,1-f][1,2,4]triazin-7-yl)methyl)-3-methylpyridin-2-yl)piperidin-4-yl)-2-(dimethylamino)acetamidea] | 45 |
| C=CC(=O)N1CCN(c2ncc(Cc3cnc4c(N)nc(OCCCC)nn34)cc2Cl)CC1 [Compound B4, 1-(4-(5-((4-amino-2-butoxyimidazo[2,1-f][1,2,4]triazin-7-yl)methyl)-3-chloropyridin-2-yl)piperazin-1-yl)prop-2-en-1-one] | > 10000 |
| CCCCNc1nc(N)c2ncc(Cc3cnc(N4CCC(N)CC4)c(C)c3)n2n1 [Compound B88, 7-((6-(4-aminopiperidin-1-yl)-5-methylpyridin-3-yl)methyl)-N2-butylimidazo[2,1-f][1,2,4]triazine-2,4-diamine] | 61 |
| CCCC(C)Nc1nc(N)c2ncc(Cc3cnc(N4CCC(NC)CC4)c(C)c3)n2n1 (centres unmarked) [Compound B166, 7-((5-methyl-6-(4-(methylamino)piperidin-1-yl)pyridin-3-yl)methyl)-N2-(pentan-2-yl)imidazo[2,1-f][1,2,4]triazine-2,4-diamine] | 2.6 |
| 2-butoxy-7-((6-(4-ethylpiperazin-1-yl)-5-methylpyridin-3-yl)methyl)imidazo[2,1-f][1,2,4]triazin-4-amine [Compound B115] | 190 |
| CCCC(CCO)Oc1nc(N)c2ncc(Cc3cnc(N4CCN(C(=O)CN(C)C)CC4)c(C)c3)n2n1 (centres unmarked) [Compound B176, 1-(4-(5-((4-amino-2-((1-hydroxyhexan-3-yl)oxy)imidazo[2,1-f][1,2,4]triazin-7-yl)methyl)-3-methylpyridin-2-yl)piperazin-1-yl)-2-(dimethylamino)ethan-1-one] | 8.6 |
| 2-butyl-7-((5-methyl-6-(piperazin-1-yl)pyridin-3-yl)methyl)imidazo[2,1-f][1,2,4]triazine-2,4-diamine [Compound B13] | 48 |
| CCC[C@@H](C)Nc1nc(N)c2ncc(Cc3cnc(N4CCC(N(C)C)CC4)c(C)c3)n2n1 (single isomer, unassigned) [Compound B185] | 25 |
| CCCCOc1nc(N)c2ncc(Cc3cnc(N4CCNCC4)cc3C)n2n1 [Compound B48, 2-butoxy-7-((4-methyl-6-(piperazin-1-yl)pyridin-3-yl)methyl)imidazo[2,1-f][1,2,4]triazin-4-amine] | 4770 |
| CCCCOc1nc(N)c2ncc(Cc3cnc(N4CCC(CN5CCCC5)CC4)c(C)c3)n2n1 [Compound B121, 2-butoxy-7-((5-methyl-6-(4-(pyrrolidin-1-ylmethyl)piperidin-1-yl)pyridin-3-yl)methyl)imidazo[2,1-f][1,2,4]triazin-4-amine] | 31 |
| N2-methyl-7-((5-methyl-6-(piperazin-1-yl)pyridin-3-yl)methyl)-N2-propylimidazo[2,1-f][1,2,4]triazine-2,4-diamine [Compound B84] | 1000 |
| CCCC(CC)Oc1nc(N)c2ncc(Cc3cnc(N4CCC(CN(C)C)CC4)c(C)c3)n2n1 (centres unmarked) [Compound B164, 7-((6-(4-((dimethylamino)methyl)piperidin-1-yl)-5-methylpyridin-3-yl)methyl)-2-(hexan-3-yloxy)imidazo[2,1-f][1,2,4]triazin-4-amine] | 4.1 |
| CCCC(C)Oc1nc(N)c2ncc(Cc3cnc(N4CCNCC4)c(C)c3)n2n1 (centres unmarked) [Compound B65, 7-((5-methyl-6-(piperazin-1-yl)pyridin-3-yl)methyl)-2-(pentan-2-yloxy)imidazo[2,1-f][1,2,4]triazin-4-amine] | 26 |
| CCC[C@H](C)Oc1nc(N)c2ncc(Cc3cnc(N4CCC(CNC)CC4)c(C)c3)n2n1 (single isomer, unassigned) [Compound B221] | 3.9 |
| CCCCOc1nc(N)c2ncc(Cc3cnc(N4CCC(CNC)CC4)c(C)c3)n2n1 [Compound B106, 2-butoxy-7-((5-methyl-6-(4-((methylamino)methyl)piperidin-1-yl)pyridine-3-yl)methyl)imidazo[2,1-f][1,2,4]triazin-4-amine] | 71 |
| CCCCOc1nc(N)c2ncc(Cc3cnc(N4CCCCCC4)c(C)c3)n2n1 [Compound B35, 7-((6-(azepan-1-yl)-5-methylpyridin-3-yl)methyl)-2-butoxyimidazo[2,1-f][1,2,4]triazin-4-amine] | > 10000 |
| CCCCOc1nc(N)c2ncc(Cc3cnc(N4CCN(CCN(C)C)CC4)c(C)c3)n2n1 [Compound B76, 2-butoxy-7-((6-(4-(2-(dimethylamino)ethyl)piperazin-1-yl)-5-methylpyridin-3-yl)methyl)imidazo[2,1-f][1,2,4]triazin-4-amine] | 94 |
| CCCCOc1nc(N)c2ncc(Cc3cnc(N4CCC(CN(C)C)CC4)c(C)c3)n2n1 [Compound B59, 2-butoxy-7-((6-(4-((dimethylamino)methyl)piperidin-1-yl)-5-methylpyridin-3-yl)methyl)imidazo[2,1-f][1,2,4]triazin-4-amine] | 20 |
| CCCCOc1nc(N)c2ncc(Cc3cnc(N4CCNCC4)c(C)c3)n2n1 [Compound B8, 2-butoxy-7-((5-methyl-6-(piperazin-1-yl)pyridin-3-yl)methyl)imidazo[2,1-f][1,2,4]triazin-4-amine] | 136 |
| CCCCOc1nc(N)c2ncc(Cc3cnc(N4CCN(C(=O)[C@@H](N)[C@@H](C)CC)CC4)c(C)c3)n2n1 [Compound B67, (2S,3S)-2-amino-1-(4-(5-((4-amino-2-butoxyimidazo[2,1-f][1,2,4]triazin-7-yl)methyl)-3-methylpyridin-2-yl)piperazin-1-yl)-3-methylpentan-1-one] | 336 |
